Laboratory results from PubChem BioAssay (NCI).
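Five concentrations, 48 hours, 96-well plates. GI50: concentration for 50% inhibition of growth. TGI: total growth inhibition.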

Experiments:
Experiment in all cases: NCI-60 cell line screen, 48 h
M14 melanoma = system: M14 melanoma
BT-549 breast = system: BT-549 breast
ACHN renal = system: ACHN renal
DU-145 prostate = system: DU-145 prostate
OVCAR-8 ovarian = system: OVCAR-8 ovarian
786-0 renal = system: 786-0 renal
HL-60(TB) leukemia = system: HL-60(TB) leukemia
COLO 205 colon = system: COLO 205 colon
PC-3 prostate = system: PC-3 prostate
HCT-116 colon = system: HCT-116 colon
CCRF-CEM leukemia = system: CCRF-CEM leukemia
NCI-H522 lung = system: NCI-H522 lung
RXF 393 renal = system: RXF 393 renal
IGROV1 ovarian = system: IGROV1 ovarian
NCI/ADR-RES ovarian = system: NCI/ADR-RES ovarian
SW-620 colon = system: SW-620 colon
NCI-H460 lung = system: NCI-H460 lung
A498 renal = system: A498 renal
NCI-H23 lung = system: NCI-H23 lung
SN12C renal = system: SN12C renal
HCC-2998 colon = system: HCC-2998 colon
UACC-62 melanoma = system: UACC-62 melanoma
U251 CNS = system: U251 CNS
OVCAR-4 ovarian = system: OVCAR-4 ovarian
MOLT-4 leukemia = system: MOLT-4 leukemia
K-562 leukemia = system: K-562 leukemia
OVCAR-5 ovarian = system: OVCAR-5 ovarian
SF-295 CNS = system: SF-295 CNS
UACC-257 melanoma = system: UACC-257 melanoma
SK-MEL-5 melanoma = system: SK-MEL-5 melanoma
SNB-75 CNS = system: SNB-75 CNS
SNB-19 CNS = system: SNB-19 CNS
EKVX NSCLC = system: EKVX NSCLC
SK-MEL-28 melanoma = system: SK-MEL-28 melanoma
SR leukemia = system: SR leukemia
MCF7 breast = system: MCF7 breast
MDA-MB-231 breast = system: MDA-MB-231 breast
T-47D breast = system: T-47D breast
KM12 colon = system: KM12 colon
SF-268 CNS = system: SF-268 CNS
HCT-15 colon = system: HCT-15 colon
HOP-92 NSCLC = system: HOP-92 NSCLC
CAKI-1 renal = system: CAKI-1 renal
HOP-62 NSCLC = system: HOP-62 NSCLC
UO-31 renal = system: UO-31 renal
MDA-MB-435 = system: MDA-MB-435
RPMI-8226 leukemia = system: RPMI-8226 leukemia
HS 578T breast = system: HS 578T breast
MALME-3M melanoma = system: MALME-3M melanoma
SK-MEL-2 melanoma = system: SK-MEL-2 melanoma
A549 NSCLC = system: A549 NSCLC
SK-OV-3 ovarian = system: SK-OV-3 ovarian
TK-10 renal = system: TK-10 renal
HT29 colon = system: HT29 colon
NCI-H226 lung = system: NCI-H226 lung
SF-539 CNS = system: SF-539 CNS
OVCAR-3 ovarian = system: OVCAR-3 ovarian
LOX IMVI melanoma = system: LOX IMVI melanoma

CC1=C(CN(O)C(N)=O)C2=C(C)C3(CC3)[C@](C)(O)C(=O)C2=C1
GI50 (M14 melanoma): 0.819 µM | TGI (M14 melanoma): 2.96 µM | GI50 (BT-549 breast): 1.18 µM | TGI (BT-549 breast): 3.18 µM | GI50 (ACHN renal): 1.13 µM | TGI (ACHN renal): 8.69 µM | GI50 (DU-145 prostate): 0.452 µM | TGI (DU-145 prostate): 26 µM | GI50 (OVCAR-8 ovarian): 0.634 µM | TGI (OVCAR-8 ovarian): > 100 µM | GI50 (786-0 renal): 2.36 µM | TGI (786-0 renal): 15.5 µM | GI50 (HL-60(TB) leukemia): 0.952 µM | TGI (HL-60(TB) leukemia): > 100 µM | GI50 (COLO 205 colon): 0.753 µM | TGI (COLO 205 colon): 4.58 µM | GI50 (PC-3 prostate): 1.46 µM | TGI (PC-3 prostate): 11.5 µM | GI50 (HCT-116 colon): 1.39 µM | GI50 (CCRF-CEM leukemia): 2.22 µM | TGI (CCRF-CEM leukemia): > 100 µM | GI50 (NCI-H522 lung): 0.721 µM | TGI (NCI-H522 lung): 4.6 µM | GI50 (RXF 393 renal): 0.328 µM | TGI (RXF 393 renal): 1.19 µM | GI50 (IGROV1 ovarian): 2.24 µM | TGI (IGROV1 ovarian): 6.38 µM | GI50 (NCI/ADR-RES ovarian): 2 µM | TGI (NCI/ADR-RES ovarian): 31.2 µM | GI50 (SW-620 colon): 1.08 µM | TGI (SW-620 colon): > 100 µM | GI50 (NCI-H460 lung): 2.55 µM | TGI (NCI-H460 lung): > 100 µM | GI50 (A498 renal): 1.35 µM | TGI (A498 renal): 3.25 µM | GI50 (NCI-H23 lung): 2.28 µM | TGI (NCI-H23 lung): 9.83 µM | GI50 (SN12C renal): 2.62 µM | TGI (SN12C renal): > 100 µM | GI50 (HCC-2998 colon): 0.219 µM | TGI (HCC-2998 colon): 0.54 µM | GI50 (UACC-62 melanoma): 1.29 µM | TGI (UACC-62 melanoma): 3.06 µM | GI50 (U251 CNS): 3.47 µM | TGI (U251 CNS): > 100 µM | GI50 (OVCAR-4 ovarian): 1.79 µM | TGI (OVCAR-4 ovarian): 9.19 µM | GI50 (MOLT-4 leukemia): 9.02 µM | TGI (MOLT-4 leukemia): > 100 µM | GI50 (K-562 leukemia): 1.39 µM | TGI (K-562 leukemia): > 100 µM | GI50 (OVCAR-5 ovarian): 0.374 µM | TGI (OVCAR-5 ovarian): 5.07 µM | GI50 (SF-295 CNS): 0.789 µM | TGI (SF-295 CNS): > 100 µM | GI50 (UACC-257 melanoma): 3.02 µM | TGI (UACC-257 melanoma): 31.3 µM | GI50 (SK-MEL-5 melanoma): 5.61 µM | TGI (SK-MEL-5 melanoma): 18.5 µM | GI50 (SNB-75 CNS): 1.28 µM | TGI (SNB-75 CNS): 3.39 µM | GI50 (SNB-19 CNS): 2.58 µM | TGI (SNB-19 CNS): > 100 µM | GI50 (EKVX NSCLC): 2.34 µM | TGI (EKVX NSCLC): 6.85 µM | GI50 (SK-MEL-28 melanoma): 0.732 µM | TGI (SK-MEL-28 melanoma): 3 µM | GI50 (SR leukemia): 0.896 µM | TGI (SR leukemia): > 100 µM | GI50 (MCF7 breast): 0.366 µM | TGI (MCF7 breast): > 100 µM | GI50 (MDA-MB-231 breast): 1.11 µM | TGI (MDA-MB-231 breast): 5.88 µM | GI50 (T-47D breast): 0.992 µM | TGI (T-47D breast): > 100 µM | GI50 (KM12 colon): 0.798 µM | TGI (KM12 colon): 11.5 µM | GI50 (SF-268 CNS): 1.72 µM | TGI (SF-268 CNS): > 100 µM | GI50 (HCT-15 colon): 1.29 µM | TGI (HCT-15 colon): 24.8 µM | GI50 (HOP-92 NSCLC): 1.08 µM | TGI (HOP-92 NSCLC): 4.21 µM | GI50 (CAKI-1 renal): 1.91 µM | TGI (CAKI-1 renal): > 100 µM | GI50 (HOP-62 NSCLC): 1.85 µM | TGI (HOP-62 NSCLC): 58.7 µM | GI50 (UO-31 renal): 0.254 µM | TGI (UO-31 renal): 0.83 µM | GI50 (MDA-MB-435): 0.382 µM | TGI (MDA-MB-435): 1.43 µM | GI50 (RPMI-8226 leukemia): 0.348 µM | TGI (RPMI-8226 leukemia): 2.67 µM | GI50 (HS 578T breast): 2.63 µM | TGI (HS 578T breast): 9.16 µM | GI50 (MALME-3M melanoma): 1.83 µM | TGI (MALME-3M melanoma): 3.88 µM | GI50 (SK-MEL-2 melanoma): 2.11 µM | TGI (SK-MEL-2 melanoma): 4.85 µM | GI50 (A549 NSCLC): 3.03 µM | TGI (A549 NSCLC): > 100 µM | GI50 (SK-OV-3 ovarian): 2.62 µM | TGI (SK-OV-3 ovarian): 9.96 µM | GI50 (TK-10 renal): 2.01 µM | TGI (TK-10 renal): 8.02 µM | GI50 (HT29 colon): 0.412 µM | TGI (HT29 colon): 13.9 µM | GI50 (NCI-H226 lung): 2.03 µM | TGI (NCI-H226 lung): 6.36 µM | GI50 (SF-539 CNS): 2.08 µM | TGI (SF-539 CNS): 6.38 µM | GI50 (OVCAR-3 ovarian): 0.557 µM | TGI (OVCAR-3 ovarian): 4.15 µM | GI50 (LOX IMVI melanoma): 6.38 µM | TGI (LOX IMVI melanoma): 36.6 µM
